Test results taken from patent publication US20080299140A1, “Immunogenic Composition and Peptide Sequences for Prevention and Treatment of an Hsv Condition” (priority 2002, published 2008).

Key:
[1] = tested on: T-cells; experiment: Cytokine analysis (IL-2, IL-4, IFN-γ sandwich ELISA); format: cell-based, mice
Description: T-cells were stimulated with either immunizing peptides (10 μg/ml), the irrelevant control peptide (10 μg/ml), UV-inactivated HSV-1 (MOI=3), or with ConA (0.5 μg/ml) as a positive control. Culture media were harvested 48 h (for IL-2) or 96 h (for IL-4 and IFN-γ) later and analyzed by specific sandwich ELISA following the manufacturer's instructions (PharMingen, San Diego, Calif.).

[2] = tested on: lymphocytes obtained from HSV-1 infected H-2^d mice; experiment: HSV-primed T-cell responses to gD peptides in HSV-1 infected mice; format: cell-based; conditions: HSV-1 infected H-2^d mice
Description: Twelve days after the second immunization, spleen and inguinal lymph nodes (LN) were removed and placed into ice-cold serum free HL-1 medium supplemented with 15 mM HEPES, 5×10^−5 M β-mercaptoethanol, 2 mM glutamine, 50 U of penicillin and 50 μg of streptomycin (GIBCO-BRL, Grand Island, N.Y.) (complete medium, CM). The cells were cultured in 96-well plates at 5×10^5 cells/well in CM, with recall or control peptide at 30, 10, 3, 1, or 0.3 μg/ml concentration, as previously described in (BenMohamed et al., 2000 and 2002). The cell suspensions were incubated for 72 h at 37° C. in 5% CO2. One μCi (micro-curie) of (^3H)-thymidine (Dupont MEN, Boston, Mass.) was added to each well during the last 16 h of culture. The incorporated radioactivity was determined by harvesting cells onto glass fiber filters and counted on a Matrix 96 direct ionization-counter (Packard Instruments, Meriden, Conn.). Results were expressed as the mean cpm of cell-associated (^3H)-thymidine recovered from wells containing Ag minus the mean cpm of cell-associated (^3H)-thymidine recovered from wells without Ag (A cpm) (average of triplicate). The Stimulation Index (SI) was calculated as the mean cpm of cell-associated (^3H)-thymidine recovered from wells containing Ag divided by the mean cpm of cell-associated (^3H)-thymidine recovered from wells without Ag (average of triplicate). For all experiments the irrelevant control peptide gB141-165 and the T-cell mitogen Concanavalin A (ConA) (Sigma, St. Louis, Mo.) were used as negative and positive controls, respectively. Proliferation results were confirmed by repeating each experiment twice. A T-cell proliferative response was considered positive when A cpm>1000 and SI>2.
To define the fine specificity of broadly reactive T-cells associated with viral immunity and to explore immunodominance in the context of HSV infection, proliferation of lymphocytes obtained from twenty HSV-1 infected H-2^d mice were evaluated using the twelve gD peptides as Ag (FIG. 6). […] Despite a difference between individual mice, a unique array of T-cell responses was identified for each of the twenty infected mice analyzed.

[3] = tested on: HLA-DR and HLA-DP molecules; experiment: MHC class II binding assays, panel of twelve HLA class II molecules (number of alleles bound); conditions: number of the twelve class II MHC alleles bound; title: Threshold 600 nM/5 alleles
[4] = T cells treated with Abs to CD4
[5] = T cells treated with Abs to CD8
[6] = splenocyte derived T cells, no Abs, average of triplicates (+/- SD)

| Structure (SMILES) | IFNγ, Anti-CD4 [1, 4] | IL-2, Anti-CD4 [1, 4] | IFNγ, Anti-CD8 [1, 5] | IL-2, Anti-CD8 [1, 5] | IFNγ, None [1, 6] | IL-2, None [1, 6] | immunodominance of epitopes in HSV-primed T-cell responses [2] | Range [3] |
| --- | --- | --- | --- | --- | --- | --- | --- | --- |
| CC[C@H](C)[C@H](N)C(=O)N[C@@H](CS)C(=O)NCC(=O)N[C@H](C(=O)N[C@H](C(=O)N[C@@H](Cc1ccc(O)cc1)C(=O)N[C@@H](Cc1c[nH]c2ccccc12)C(=O)N[C@@H](CCSC)C(=O)N[C@@H](CCCNC(=N)N)C(=O)N[C@@H](CCCNC(=N)N)C(=O)N[C@@H](Cc1c[nH]cn1)C(=O)N[C@H](C(=O)N[C@@H](CCC(N)=O)C(=O)N[C@@H](CCCCN)C(=O)N[C@@H](C)C(=O)N1CCC[C@H]1C(=O)N[C@@H](CCCCN)C(=O)N[C@@H](CCCNC(=N)N)C(=O)N[C@H](C(=O)N[C@@H](CCCNC(=N)N)C(=O)N[C@@H](CC(C)C)C(=O)N1CCC[C@H]1C(=O)N[C@@H](Cc1c[nH]cn1)C(=O)N[C@H](C(=O)N[C@@H](CCCNC(=N)N)C(=O)N[C@@H](CCC(=O)O)C(=O)N[C@@H](CC(=O)O)C(=O)O)[C@@H](C)CC)[C@@H](C)CC)[C@@H](C)O)C(C)C)[C@@H](C)CC [HSV 39] | 4 (+/−1) ng/ml | 36 (+/−1) pg/ml | 54 (+/−1) ng/ml | 13 (+/−4) pg/ml | 179 (+/5−) ng/ml | 135 (+/6−) pg/ml | immunodominant epitopes | 6 |
| CC[C@H](C)[C@H](NC(=O)[C@@H](N)[C@@H](C)O)C(=O)N[C@@H](C)C(=O)N[C@@H](Cc1c[nH]c2ccccc12)C(=O)N[C@@H](Cc1ccccc1)C(=O)N[C@@H](CCCNC(=N)N)C(=O)N[C@@H](CCSC)C(=O)NCC(=O)NCC(=O)N[C@@H](CC(N)=O)C(=O)N[C@@H](CS)C(=O)N[C@@H](C)C(=O)N[C@H](C(=O)N1CCC[C@H]1C(=O)N[C@H](C(=O)N[C@H](C(=O)N[C@H](C(=O)N[C@@H](CCSC)C(=O)N[C@@H](CCC(=O)O)C(=O)N[C@@H](Cc1ccc(O)cc1)C(=O)N[C@H](C(=O)N[C@@H](CCC(=O)O)C(=O)N[C@@H](CS)C(=O)N[C@@H](CO)C(=O)N[C@@H](Cc1ccc(O)cc1)C(=O)N[C@@H](CC(N)=O)C(=O)N[C@@H](CCCCN)C(=O)N[C@@H](CO)C(=O)O)[C@@H](C)O)C(C)C)[C@@H](C)O)[C@@H](C)CC)[C@@H](C)CC [HSV 41] |  |  |  |  |  |  | subdominant epitopes | 8 |
